Data: the NIST ThermoML archive (doi:10.1021/je0503857)
Numbers after ± are expanded uncertainties.

How the values were obtained:
[1] = for vapor or sublimation pressure: Liquid, Gas chromatography; for Normal melting temperature: Crystal, DTA
[2] = Molar enthalpy of transition or fusion; conditions: DSC
[3] = molar heat capacity at constant pressure; conditions: 298.15 K; 101.33 kPa; Crystal; Small sample (50 mg) DSC

Compound	vapor or sublimation pressure ([1]; 330 K) [kPa]	vapor or sublimation pressure ([1]; 360 K) [kPa]	vapor or sublimation pressure ([1]; 390 K) [kPa]	vapor or sublimation pressure ([1]; 420 K) [kPa]	vapor or sublimation pressure ([1]; 450 K) [kPa]	vapor or sublimation pressure ([1]; 480 K) [kPa]	vapor or sublimation pressure ([1]; 510 K) [kPa]	Normal melting temperature [1] [°C]	Molar enthalpy of transition or fusion ([2]; Crystal) [kcal/mol]	molar heat capacity at constant pressure [3] [J/K/mol]	vapor or sublimation pressure ([1]; 298.15 K) [kPa]	vapor or sublimation pressure ([1]; 300 K) [kPa]	Molar enthalpy of transition or fusion ([2]; Crystal 2) [kcal/mol]
CCCCCCCCCCCCCCCCCCCCCCO [1-docosanol]	5.89e-07 ± 7.1e-08	2.687e-05 ± 2.7e-06	0.000588 ± 5.9e-05	0.007063 ± 0.00071	0.0523 ± 0.0052	0.2627 ± 0.026	0.9664 ± 0.097	71.4 ± 0.5	19.8 ± 0.526	625 ± 13	–	–	–
CCCCCCCCCCCCCCCCCCCCO [1-eicosanol]	3.509e-06 ± 3.6e-07	0.0001228 ± 1.2e-05	0.002151 ± 0.00021	0.02156 ± 0.0022	0.1382 ± 0.014	0.6201 ± 0.062	2.091 ± 0.21	64 ± 1	–	571.2 ± 11	3.215e-08 ± 1.3e-08	4.345e-08 ± 1.4e-08	18.7 ± 0.502
CCCCCCCCCCCCCCCCCO [1-heptadecanol]	4.724e-05 ± 4.8e-06	0.001125 ± 0.00011	0.01426 ± 0.0014	0.1098 ± 0.011	0.571 ± 0.057	2.174 ± 0.22	6.457 ± 0.65	52.2 ± 0.5	–	490.5 ± 9.8	6.86e-07 ± 7.9e-08	9.02e-07 ± 1e-07	15.2 ± 0.406
CCCCCCCCCCCCCCCCCCCCCCCCCCO [1-hexacosanol]	1.78e-08 ± 1.2e-08	1.364e-06 ± 1.5e-07	4.614e-05 ± 4.6e-06	0.0007898 ± 7.9e-05	0.007756 ± 0.00078	0.0486 ± 0.0049	0.212 ± 0.021	80.0 ± 0.5	24.8 ± 0.645	732.6 ± 15	6.401e-11	9.145e-11	–
CCCCCCCCCCCCCCCCCCO [1-octadecanol]	–	–	–	–	–	–	–	52.5 ± 5	–	517.4 ± 10	–	–	16.6 ± 0.43
CCCCCCCCCCCCCC(O)CCC (configuration not stated) [4-heptadecanol]	–	–	–	–	–	–	–	38.4 ± 0.5	8.53 ± 0.239	472.6 ± 9.5	–	–	–
CCCCCCCCCCCC(O)CCCCC (configuration not stated) [6-heptadecanol]	0.0001082 ± 1.1e-05	0.002283 ± 0.00023	0.02614 ± 0.0026	0.1853 ± 0.019	0.901 ± 0.09	3.255 ± 0.33	9.287 ± 0.93	42.7 ± 0.5	11.7 ± 0.311	472.6 ± 9.5	1.813e-06 ± 1.9e-07	2.363e-06 ± 2.5e-07	–
CCCCCCCCCCC(O)CCCCCC (configuration not stated) [7-heptadecanol]	0.0001153 ± 1.2e-05	0.002406 ± 0.00024	0.0273 ± 0.0027	0.192 ± 0.019	0.9282 ± 0.093	3.337 ± 0.33	9.481 ± 0.95	41.2 ± 0.5	6.88 ± 0.215	472.6 ± 9.5	1.959e-06 ± 2.1e-07	2.552e-06 ± 2.7e-07	–
CCCCCCCCC(O)CCCCCCCC [9-heptadecanol]	0.0001127 ± 1.1e-05	0.002368 ± 0.00024	0.02704 ± 0.0027	0.1913 ± 0.019	0.929 ± 0.093	3.354 ± 0.34	9.568 ± 0.96	57.1 ± 0.5	10.3 ± 0.287	472.6 ± 9.5	1.895e-06 ± 2e-07	2.471e-06 ± 2.6e-07	–
CC(C)CCC[C@@H](C)[C@H]1CC[C@H]2[C@@H]3CC=C4C[C@@H](O)CC[C@]4(C)[C@H]3CC[C@]12C [.DELTA.5-cholesten-3β-ol]	1.71e-08 ± 1.2e-08	1.132e-06 ± 1.2e-07	3.397e-05 ± 3.4e-06	0.0005237 ± 5.3e-05	0.004678 ± 0.00047	0.02685 ± 0.0027	0.1078 ± 0.011	–	–	–	7.557e-11	1.065e-10	–
